Measured values from ChEMBL document CHEMBL1201862, “PubChem BioAssay data set” (2004).
Active and inactive are the calls of the source.

Tests used:
[1] = HEp-2 cell cytotoxicity, dose response, cytotoxicity control for RSV inhibitor project, HTS (AID 2410); format: functional; settings: human respiratory syncytial virus
HT-1080 = test: cytotoxicity in HT1080 fibrosarcoma cells, cell-based, fluorescence readout (AID 620); format: functional; settings: Homo sapiens
[2] = target: Luciferin 4-monooxygenase (Photinus pyralis, UniProt P08659); test: Counter Screen for Luciferase-based Assay Positives. [Related pubchem assays: 620, 618, 411 ]
Chain of Luciferin 4-monooxygenase (P08659 whole entry, the tested form may be a part): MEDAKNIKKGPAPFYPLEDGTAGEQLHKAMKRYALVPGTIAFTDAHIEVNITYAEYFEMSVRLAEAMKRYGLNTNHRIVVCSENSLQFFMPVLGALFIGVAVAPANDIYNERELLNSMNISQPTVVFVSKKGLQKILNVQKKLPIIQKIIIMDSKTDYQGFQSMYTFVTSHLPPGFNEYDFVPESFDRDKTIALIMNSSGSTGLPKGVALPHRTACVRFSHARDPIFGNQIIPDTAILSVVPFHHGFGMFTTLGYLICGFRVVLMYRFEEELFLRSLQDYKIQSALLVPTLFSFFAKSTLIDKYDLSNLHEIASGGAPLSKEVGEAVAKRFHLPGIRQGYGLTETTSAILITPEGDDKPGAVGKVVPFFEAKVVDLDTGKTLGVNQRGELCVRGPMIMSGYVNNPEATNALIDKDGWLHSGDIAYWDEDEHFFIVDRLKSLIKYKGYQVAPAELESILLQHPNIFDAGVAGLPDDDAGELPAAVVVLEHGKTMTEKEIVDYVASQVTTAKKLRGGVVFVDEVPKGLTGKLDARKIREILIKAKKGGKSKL

Estrogen receptor [3] = target: T1, Estrogen receptor (Homo sapiens, UniProt P03372); test: potentiators of ERα–SRC-1 coactivator binding, dose response, biochemical, TR-FRET, ERα LBD (AID 737)
T1 sequence (P03372 whole entry): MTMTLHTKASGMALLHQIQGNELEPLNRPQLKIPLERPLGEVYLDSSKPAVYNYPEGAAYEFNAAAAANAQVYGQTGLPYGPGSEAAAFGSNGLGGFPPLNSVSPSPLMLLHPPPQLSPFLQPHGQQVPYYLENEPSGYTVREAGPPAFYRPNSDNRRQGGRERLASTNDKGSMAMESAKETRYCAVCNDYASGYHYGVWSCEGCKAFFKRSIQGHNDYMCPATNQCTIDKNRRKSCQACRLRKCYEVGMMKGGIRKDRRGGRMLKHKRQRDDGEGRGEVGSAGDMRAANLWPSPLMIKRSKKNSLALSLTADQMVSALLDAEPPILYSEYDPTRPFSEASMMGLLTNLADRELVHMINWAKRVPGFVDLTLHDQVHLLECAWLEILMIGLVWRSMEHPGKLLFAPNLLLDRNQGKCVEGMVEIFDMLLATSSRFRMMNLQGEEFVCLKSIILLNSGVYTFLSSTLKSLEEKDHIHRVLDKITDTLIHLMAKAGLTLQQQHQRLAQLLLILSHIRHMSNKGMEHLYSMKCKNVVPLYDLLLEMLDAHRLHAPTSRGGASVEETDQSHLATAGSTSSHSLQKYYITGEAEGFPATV

NADPH oxidase 1 = target: T2, NADPH oxidase 1 (Homo sapiens, UniProt Q9Y5S8); format: functional, cell-based;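 note: Cell-based assay with luminescence read-out, IC50 derived from inhibitor dose-response curves; intracellular ROS from endogenous NOX1 in intact HT29 colon cancer cells; potency of inhibitors that lower the ROS luminescence signal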
T2 sequence (Q9Y5S8 whole entry): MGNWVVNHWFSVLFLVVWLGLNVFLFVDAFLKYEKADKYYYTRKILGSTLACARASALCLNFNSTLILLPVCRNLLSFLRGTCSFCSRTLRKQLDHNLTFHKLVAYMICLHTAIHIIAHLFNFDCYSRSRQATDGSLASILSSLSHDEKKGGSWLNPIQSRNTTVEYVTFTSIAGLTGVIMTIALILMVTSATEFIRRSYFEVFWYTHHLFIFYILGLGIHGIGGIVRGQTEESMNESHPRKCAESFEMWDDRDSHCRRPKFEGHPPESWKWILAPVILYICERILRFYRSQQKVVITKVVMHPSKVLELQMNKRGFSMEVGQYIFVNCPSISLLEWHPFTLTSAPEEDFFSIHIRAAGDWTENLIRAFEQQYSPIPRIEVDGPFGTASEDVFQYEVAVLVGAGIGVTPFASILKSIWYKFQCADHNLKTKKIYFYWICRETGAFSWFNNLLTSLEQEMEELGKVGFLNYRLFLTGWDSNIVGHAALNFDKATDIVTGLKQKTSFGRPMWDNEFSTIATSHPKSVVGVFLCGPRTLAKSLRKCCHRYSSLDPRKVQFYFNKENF

cells [4] = test: cells
Cytochrome P450 2C19 = Cytochrome P450 2C19 (Homo sapiens, UniProt P33261); test: Cytochrome panel assay with activity outcomes. Panel member name: p450-cyp2c19 Compounds with AC50 equal or less than 10 uM are considered active; format: functional; settings: read-out: AC50
Chain of Cytochrome P450 2C19 (P33261 whole entry): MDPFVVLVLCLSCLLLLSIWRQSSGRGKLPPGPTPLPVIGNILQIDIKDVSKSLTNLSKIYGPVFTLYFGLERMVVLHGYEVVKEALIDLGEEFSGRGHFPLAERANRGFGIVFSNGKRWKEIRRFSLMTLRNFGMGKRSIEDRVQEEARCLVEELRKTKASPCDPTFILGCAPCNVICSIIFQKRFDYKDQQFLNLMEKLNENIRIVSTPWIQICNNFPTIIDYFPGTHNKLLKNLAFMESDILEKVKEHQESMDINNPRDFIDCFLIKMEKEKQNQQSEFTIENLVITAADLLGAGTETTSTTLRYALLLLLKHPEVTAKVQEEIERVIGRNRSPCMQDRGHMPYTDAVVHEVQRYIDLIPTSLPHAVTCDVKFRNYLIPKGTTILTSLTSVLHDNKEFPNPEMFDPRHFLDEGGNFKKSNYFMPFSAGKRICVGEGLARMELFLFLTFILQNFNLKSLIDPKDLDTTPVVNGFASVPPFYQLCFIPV

[5] = A cytotoxicity screen of small molecule inhibitors of the PhoP region in Salmonella typhi identified in the primary screen. [Related pubchem assays: 1850, 1864, 1985 ]; format: functional
Cytochrome P450 2C9 = Cytochrome P450 2C9 (Homo sapiens, UniProt P11712)
Chain of Cytochrome P450 2C9 (P11712 whole entry): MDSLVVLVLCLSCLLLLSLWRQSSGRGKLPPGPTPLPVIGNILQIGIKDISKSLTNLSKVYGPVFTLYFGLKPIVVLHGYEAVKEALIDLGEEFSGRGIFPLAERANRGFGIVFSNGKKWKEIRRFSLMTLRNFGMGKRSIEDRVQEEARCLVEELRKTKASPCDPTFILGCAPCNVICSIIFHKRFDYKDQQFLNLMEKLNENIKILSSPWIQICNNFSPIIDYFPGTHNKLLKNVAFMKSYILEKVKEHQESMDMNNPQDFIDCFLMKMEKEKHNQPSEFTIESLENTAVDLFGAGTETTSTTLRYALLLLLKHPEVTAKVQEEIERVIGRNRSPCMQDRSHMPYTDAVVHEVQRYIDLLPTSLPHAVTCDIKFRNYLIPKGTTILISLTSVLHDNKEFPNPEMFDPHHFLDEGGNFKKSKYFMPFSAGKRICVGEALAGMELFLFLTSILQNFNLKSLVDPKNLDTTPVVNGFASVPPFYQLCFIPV

cells [6] = format: functional
Estrogen receptor beta [7] = target: T3, Estrogen receptor beta (Homo sapiens, UniProt Q92731); test: ERβ–SRC-3 coactivator interaction inhibitors, confirmation, orthogonal assay, biochemical, ELISA, streptavidin-HRP readout (AID 1060)
T3 sequence (Q92731 whole entry): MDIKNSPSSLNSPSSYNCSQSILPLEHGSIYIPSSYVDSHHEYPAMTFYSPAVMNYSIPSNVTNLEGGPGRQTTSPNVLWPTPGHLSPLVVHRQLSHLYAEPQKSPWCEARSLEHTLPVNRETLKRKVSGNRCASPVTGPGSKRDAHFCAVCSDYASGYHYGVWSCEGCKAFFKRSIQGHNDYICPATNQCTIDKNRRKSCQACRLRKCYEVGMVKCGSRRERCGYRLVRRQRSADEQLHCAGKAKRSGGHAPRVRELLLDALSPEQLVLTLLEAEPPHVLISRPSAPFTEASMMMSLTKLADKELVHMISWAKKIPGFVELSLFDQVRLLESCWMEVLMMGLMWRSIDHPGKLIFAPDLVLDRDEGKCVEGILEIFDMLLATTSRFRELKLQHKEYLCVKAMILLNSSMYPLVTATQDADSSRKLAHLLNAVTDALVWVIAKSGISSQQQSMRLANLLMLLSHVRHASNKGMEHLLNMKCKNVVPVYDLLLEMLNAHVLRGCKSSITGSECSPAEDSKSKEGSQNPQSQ

Protein Tat = target: T4, Protein Tat (Human immunodeficiency virus type 1 group M subtype B (isolate HXB2)(HIV-1), UniProt P04608); format: functional;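 note: tat binding to TAR RNA read out by fluorescence polarization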
T4 sequence (P04608 whole entry): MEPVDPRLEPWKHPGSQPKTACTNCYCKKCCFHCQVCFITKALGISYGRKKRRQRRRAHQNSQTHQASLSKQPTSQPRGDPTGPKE

Estrogen receptor beta [8] = target: T3, Estrogen receptor beta
Estrogen receptor [9] = target: T1, Estrogen receptor
[10] = inhibitors of firefly luciferase expression or activity, dose response, H4 neuroglioma cells, luminescence (AID 1990); format: functional, cell-based
[11] = luciferase reporter signal reduction – luminescence, H4-C neuroglioblastoma cells, dose response (AID 2458); format: functional, cell-based;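 note: H4 neuroglioblastoma cells stably carrying a luciferase reporter gene fusion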
[12] = Luminescence Cell-Based Dose Response HTS to Identify Inhibitors of 5'UTR Stem-Loop Driven Prion Protein mRNA Translation in H4 Neuroglioblastoma Cells. [Related pubchem assays: 1827 (Project Summary), 1813 (Primary HTS)]; format: functional
[13] = HEK293 cell cytotoxicity, dose response, cytotoxicity control, plate reader, cherry-picked samples (AID 743446); format: functional, cell-based
[14] = inhibitors of SNCA 5'UTR-driven reporter translation, confirmation, H4 neuroglioma cells, luminescence (AID 1988); format: functional, cell-based
[15] = MC4R antagonists, dose response, counter-screen for LGR2 antagonist project, cell-based, plate reader, cherry pick (AID 743444); format: functional;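 note: transfected HEK 293 cells stimulated with alpha-MSH peptide; potency of inhibitors of the alpha-MSH evoked signal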
cells [16] = format: functional, cell-based
[17] = LGR2 antagonists, dose response, cell-based, HEK293, CRE-luciferase reporter, cherry pick, set 2 (AID 743343); format: functional;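 note: transfected cells were stimulated with diluted bursicon conditioned medium after compound addition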
[18] = HepG2 cell cytotoxicity, dose response, cytotoxicity control, plate reader, cherry-pick, antagonist series (AID 743416); format: functional, cell-based
[19] = target: T5, Heat shock factor protein 1 (Mus musculus, UniProt P38532); test: inhibition of MG132-induced HSE-luciferase signal, confirmation, cell-based, NIH3T3, luminescence, dose retest (AID 2382); format: functional;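 note: NIH3T3 fibroblasts with HSF1-driven luciferase reporter stressed by proteasome inhibitor MG132; luminescence from HSF1-driven luciferase expression after 8 hours of MG132 stress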
T5 sequence (P38532 whole entry): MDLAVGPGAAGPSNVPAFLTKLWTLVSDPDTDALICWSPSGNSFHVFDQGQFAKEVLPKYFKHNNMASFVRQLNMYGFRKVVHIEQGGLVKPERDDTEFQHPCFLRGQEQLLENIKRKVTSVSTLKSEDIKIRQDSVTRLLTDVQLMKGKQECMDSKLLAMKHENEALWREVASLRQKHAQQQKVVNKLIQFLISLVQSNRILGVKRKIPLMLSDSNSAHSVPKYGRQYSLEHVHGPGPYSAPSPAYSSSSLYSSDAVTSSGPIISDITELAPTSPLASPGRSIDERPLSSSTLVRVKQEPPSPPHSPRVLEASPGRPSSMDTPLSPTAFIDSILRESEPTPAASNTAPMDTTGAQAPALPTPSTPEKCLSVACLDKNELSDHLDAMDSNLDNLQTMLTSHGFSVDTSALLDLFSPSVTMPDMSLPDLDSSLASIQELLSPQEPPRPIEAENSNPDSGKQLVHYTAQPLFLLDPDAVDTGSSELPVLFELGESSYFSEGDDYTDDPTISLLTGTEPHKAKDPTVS

[20] = inhibitors of SNCA 5'UTR-driven translation, confirmation, luminescence, H4 neuroglioblastoma cells, dose confirmation (AID 2454); format: functional, cell-based;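 note: H4 neuroglioblastoma cells carrying an alpha-synuclein 5'UTR luciferase reporter; potency for inhibition of the luciferase signal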
[21] = Luminescence-based counterscreen assay for KLF5 inhibitors: dose response cell-based high throughput screening assay to identify cytotoxic compounds using the IEC-6 intestinal epithelial cell line. [Related pubchem assays: 1700 (Primary screen.), 1834 (Confirmation screen.), 1858 (Summary AID.), 1905 (Counterscreen.)]; format: functional
[22] = inhibitors of Bluetongue virus cytopathic effect, confirmation, arbovirus, BSR cells (AID 1250); format: functional;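 note: protection from viral cytopathic effect measured as cell viability by ATP luminescence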
[23] = M. tuberculosis H37Rv growth inhibitors, H37Rv strain (AID 1626); format: functional
HEK293 = test: Fluorescence-based counterscreen for potentiators or agonists of NPY-Y2: cell-based high-throughput dose response assay to identify inhibitors of cyclic nucleotide gated ion channel (CNGC) activity. In this assay, the parental HEK293 cell line transfected with a cyclic-nucleotide gated ion channel (CNGC)-based cAMP sensor is used to measure inhibition of isoproterenol-induced CNGC activity by test compound.; format: functional; settings: Homo sapiens;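 note: stimulus is 1 µM isoproterenol at EC100 plus PDE inhibitor Ro 20-1724 at 25 µM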
[24] = target: T6, Neuropeptide Y receptor type 2 (Homo sapiens, UniProt P49146); test: Fluorescence-based cell-based high-throughput dose response assay for agonists of NPY-Y2. [Related pubchem assays: 1703 (Screening assay (CNGC inhibitors).), 1359 (Screening assay (NPY-Y2 potentiators or agonists).), 1304 (Screening assay (NPY-Y1 potentiators or agonists).), 1710 (Screening assay (NPY-Y2 agonists).), 1791 (Summary AID.)]; format: functional
T6 sequence (P49146 whole entry): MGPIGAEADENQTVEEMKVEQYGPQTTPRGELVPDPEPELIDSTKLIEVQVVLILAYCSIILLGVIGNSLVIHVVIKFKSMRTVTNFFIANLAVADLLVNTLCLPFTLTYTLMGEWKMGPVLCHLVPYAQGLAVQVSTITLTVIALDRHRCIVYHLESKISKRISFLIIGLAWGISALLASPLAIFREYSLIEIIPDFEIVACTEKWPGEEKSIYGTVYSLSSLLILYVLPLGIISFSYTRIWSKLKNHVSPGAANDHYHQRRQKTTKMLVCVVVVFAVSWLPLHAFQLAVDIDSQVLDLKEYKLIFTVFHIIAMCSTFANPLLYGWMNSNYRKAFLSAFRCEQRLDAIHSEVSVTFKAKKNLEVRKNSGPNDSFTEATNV

[25] = target: T7, Neuropeptide Y receptor type 1 (Homo sapiens, UniProt P25929); test: Fluorescence-based counterscreen for agonists of NPY-Y2: cell-based high-throughput dose response assay for agonists of NPY-Y1.; format: functional
T7 sequence (P25929 whole entry): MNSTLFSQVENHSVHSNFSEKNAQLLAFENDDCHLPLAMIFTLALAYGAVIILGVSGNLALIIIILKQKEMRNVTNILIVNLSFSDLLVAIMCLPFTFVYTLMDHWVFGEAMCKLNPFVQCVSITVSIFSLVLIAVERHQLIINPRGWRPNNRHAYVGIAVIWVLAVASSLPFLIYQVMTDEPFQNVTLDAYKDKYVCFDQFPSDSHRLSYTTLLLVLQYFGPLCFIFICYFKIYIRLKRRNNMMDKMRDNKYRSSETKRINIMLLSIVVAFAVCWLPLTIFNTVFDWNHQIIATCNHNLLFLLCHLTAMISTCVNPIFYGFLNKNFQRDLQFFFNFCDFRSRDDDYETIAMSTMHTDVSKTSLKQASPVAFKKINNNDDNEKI

[26] = target: Inward rectifier potassium channel 2 (Mus musculus, UniProt P35561); test: Manual electrophysiological patch clamp assay for SAR compounds that inhibit/block inward-rectifying potassium ion channel Kir2.1. [Related pubchem assays: 1843 (Summary assay for Kir2.1 inhibitor assays.), 1672 (Primary HTS of 305616 compounds where 2592 were identified as active.)]; format: functional
Chain of Inward rectifier potassium channel 2 (P35561 whole entry): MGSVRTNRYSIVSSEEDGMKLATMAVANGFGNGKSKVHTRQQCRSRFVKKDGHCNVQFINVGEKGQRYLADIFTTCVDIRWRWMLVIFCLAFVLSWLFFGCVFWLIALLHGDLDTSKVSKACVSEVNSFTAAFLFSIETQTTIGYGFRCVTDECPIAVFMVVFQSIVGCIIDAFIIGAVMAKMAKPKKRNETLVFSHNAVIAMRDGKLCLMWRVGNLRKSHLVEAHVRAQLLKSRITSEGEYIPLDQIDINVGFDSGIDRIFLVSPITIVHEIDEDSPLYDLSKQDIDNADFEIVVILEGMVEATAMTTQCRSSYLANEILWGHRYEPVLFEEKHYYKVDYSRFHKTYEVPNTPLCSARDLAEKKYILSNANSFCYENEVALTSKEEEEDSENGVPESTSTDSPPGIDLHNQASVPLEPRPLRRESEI

COc1cc(SC)ccc1C(=O)Nc1ccc2c(c1)OCCO2
CC50 [1]: 19.9 µM (active)
EC50 (HT-1080): > 50 µM (not active)
EC50 [2]: 75.4 µM (active)

COCCn1c(C)cc(C2=NN=C(Nc3ccccc3)SC2)c1C
EC50 (HT-1080): > 50 µM (not active)
EC50 [2]: 2.49 µM (active)

Cc1cccc(N2CCN(C(=O)c3cc4c(=O)n(C)c5ccccc5c4n3C)CC2)c1C
EC50 (Estrogen receptor [3]): 12.8 µM (active)

O=C1Nc2ccccc2/C1=N/NC(=S)Nc1ccccc1
IC50 (NADPH oxidase 1): > 17 µM (not active)

CCOc1ccc(CNC(=O)c2cc3oc4ccccc4c3n2C)cc1
CC50 [1]: 39 µM (active)
IC50 (cells [4]): 4.82 µM (active)

CC(=O)/C=C1\Nc2ccccc2OC1=O
AC50 (Cytochrome P450 2C19): 7.94 µM (inconclusive)
EC50 [5]: > 50 µM (active)
AC50 (Cytochrome P450 2C9): 2.24 µM (inconclusive)
IC50 (cells [6]): 5.75 µM (active)

Cc1noc(C)c1COc1ccc(C(=O)OCC(=O)N2c3ccccc3NC(=O)C2(C)C)cc1
IC50 (Estrogen receptor beta [7]): 3.98 µM (not active)
IC50 (Protein Tat): > 100 µM (inconclusive)
IC50 (Estrogen receptor beta [8]): 2.72 µM (active)
IC50 (Estrogen receptor [9]): 8.74 µM (active)

CCc1ccn2cc(-c3cc(-c4ccccc4)no3)nc2c1
EC50 [10]: 0.207 µM (active)
EC50 [11]: 1.2 µM (active)
EC50 [12]: < 0.1 µM (active)
AC50 [13]: > 52 µM (inactive)
EC50 [14]: 0.13 µM (active)
AC50 [15]: 0.701 µM (active)
EC50 (cells [16]): > 12 µM (inconclusive)
AC50 [17]: 0.805 µM (active)
AC50 [18]: 25.4 µM (active)
EC50 [19]: < 0.16 µM (active)
EC50 [20]: 1.12 µM (active)
IC50 [21]: > 39.8 µM (not active)

COc1cc(NC(=O)c2cccs2)c(C(=O)OCC(=O)NC(=O)NCc2ccccc2)cc1OC
EC50 (Estrogen receptor [3]): 1.58 µM (active)

O=C(Nc1nc(-c2ccco2)cs1)c1ccccc1
IC50 [22]: 30.7 µM (active)

COc1ccc(-c2csc(Nc3ccc(C)cn3)n2)cc1OC
IC50 [22]: 35.9 µM (active)

COc1ccc(NC(=O)CCCSc2ccccc2)cc1
IC50 (Protein Tat): > 100 µM (active)
IC50 [23]: > 100 µM (active)

OC1(c2ccc(OC(F)F)cc2)CS/C(=N\c2cccnc2)N1Cc1ccco1 (stereo not given)
EC50 (HEK293): > 35.4 µM (not active)
EC50 [24]: > 35.4 µM (not active)
EC50 [25]: > 35.4 µM (not active)

COc1ccc(CNCc2ccc(OC)cc2)cc1
IC50 [26]: 1.88 µM (active)

O=C(CCn1c(=O)c2sccc2n(Cc2cc(=O)n3ccccc3n2)c1=O)NCc1ccco1
IC50 (cells [4]): 24.4 µM (active)

COc1ccc(CNCc2ccc(Cl)cc2Cl)cc1
IC50 [26]: 3.13 µM (active)
